≈ marks a conversion by molar mass, not a printed value.

Among the test systems are Staphylococcus aureus; Escherichia coli B; Staphylococcus aureus 1; Bacillus subtilis 168; Pseudomonas aeruginosa; Escherichia coli MG1655.
Holding throughout (assay): ≥ marks a high value that may be exact or a test limit, other limits are often not marked, values filed in µg/mL are converted to µM
Experiment [1] deals with Micrococcus luteus CCM 144.
The test system of experiment [2] is Staphylococcus aureus ATCC 43300.
Experiment [3] deals with Candida albicans F7-39/IDE99.
Experiment [4] has as its system Staphylococcus epidermidis.
The subject of experiment [5] is Pseudomonas aeruginosa ATCC 27853.
The test system of experiment [6] is Fusarium graminearum PH-1.
In experiment [7] the test system is Staphylococcus aureus ATCC 25923.
For experiment [8], the system named is Pseudomonas aeruginosa ATCC 10145.
Experiment [9] concerns Klebsiella pneumoniae ATCC 700603.
Experiment [10] has as its system Acinetobacter baumannii ATCC 17978.
For experiment [11], the system named is Escherichia coli ATCC 8739.
The subject of experiment [12] is Staphylococcus aureus HNCMO 112011.

For `CC[C@H](C)[C@H](NC(=O)CN)C(=O)N[C@@H](CC(C)C)C(=O)N[C@@H](CO)C(=O)N[C@@H](CCCCN)C(=O)N[C@@H](CC(C)C)C(=O)N[C@@H](CC(C)C)C(=O)N[C@@H](CCCCN)C(=O)N[C@@H](CCCCN)C(=O)N[C@@H](CC(C)C)C(=O)N[C@@H](CCCCN)C(=O)N[C@@H](CCCCN)C(=O)N[C@H](C(=O)N[C@H](C(=O)N[C@@H](C)C(=O)N[C@@H](CCCCN)C(N)=O)[C@@H](C)CC)[C@@H](C)CC` [GILSKLLKKLKKIIAK], the MIC – broadly, the smallest concentration in the dilution series that meets the test's criterion for growth inhibition – against Staphylococcus aureus is 10 µM (≈ 17.9 µg/mL); against Escherichia coli B, 18 µM (≈ 32.3 µg/mL); against Staphylococcus aureus 1 it was 5.9 µM (≈ 10.6 µg/mL); in experiment [1], 3 µM (≈ 5.38 µg/mL); in experiment [2], 23 µM (≈ 41.2 µg/mL); in [3], no less than 45 µM. Besides, the minimum inhibitory concentration (MIC) is 1.8 µM (≈ 3.23 µg/mL) in [4], 4.5 µM (≈ 8.07 µg/mL) in [5], 7 µM (≈ 12.6 µg/mL) in the experiment with Bacillus subtilis 168 and 8.5 µM (≈ 15.2 µg/mL) in the experiment with Pseudomonas aeruginosa.
For the compound `CC[C@H](C)[C@H](NC(=O)CN)C(=O)N[C@@H](CC(C)C)C(=O)N[C@@H](CO)C(=O)N[C@@H](CO)C(=O)N[C@@H](CC(C)C)C(=O)N[C@@H](CC(C)C)C(=O)N[C@@H](CCCCN)C(=O)N[C@@H](CCCCN)C(=O)N[C@@H](CC(C)C)C(=O)N[C@@H](CCCCN)C(=O)N[C@@H](CCCCN)C(=O)N[C@@H](Cc1c[nH]c2ccccc12)C(=O)N[C@H](C(=O)N[C@@H](C)C(=O)N[C@@H](CCCCN)C(N)=O)[C@@H](C)CC` [GILSSLLKKLKKWIAK], the minimal inhibitory concentration (MIC) in the experiment with Staphylococcus aureus was 4 µM (≈ 7.3 µg/mL); against Escherichia coli B, 4 µM (≈ 7.3 µg/mL); in the experiment on Staphylococcus aureus 1, 2.6 µM (≈ 4.75 µg/mL); in experiment [1], 3 µM (≈ 5.48 µg/mL); in experiment [2] it was 8 µM (≈ 14.6 µg/mL); in [3], 16 µM (≈ 29.2 µg/mL). For the same compound, the MIC in [4] was 1.6 µM (≈ 2.92 µg/mL); in experiment [5] it was 8 µM (≈ 14.6 µg/mL); with Bacillus subtilis 168, 7 µM (≈ 12.8 µg/mL); in the experiment with Pseudomonas aeruginosa, 21 µM (≈ 38.3 µg/mL).
In the case of `CC[C@H](C)[C@H](NC(=O)CN)C(=O)N[C@@H](CCSC)C(=O)N[C@@H](CO)C(=O)N[C@@H](CO)C(=O)N[C@@H](CC(C)C)C(=O)N[C@@H](CCSC)C(=O)N[C@@H](CCCCN)C(=O)N[C@@H](CCCCN)C(=O)N[C@@H](CC(C)C)C(=O)N[C@@H](CCCCN)C(=O)N[C@@H](CCCCN)C(=O)N[C@H](C(=O)N[C@H](C(=O)N[C@@H](C)C(=O)N[C@@H](CCCCN)C(N)=O)[C@@H](C)CC)[C@@H](C)CC` [GIMSSLMKKLKKIIAK], the MIC against Staphylococcus aureus was 23 µM (≈ 41.1 µg/mL); against Escherichia coli B, 9 µM (≈ 16.1 µg/mL); in the experiment on Staphylococcus aureus 1, 7.6 µM (≈ 13.6 µg/mL); in experiment [1] it was 3 µM (≈ 5.37 µg/mL); in experiment [2], 32 µM (≈ 57.2 µg/mL); in experiment [3], 5.2 µM (≈ 9.3 µg/mL). Further, the minimal inhibitory concentration (MIC) in experiment [4] amounted to 1.9 µM (≈ 3.4 µg/mL); in experiment [5], 5 µM (≈ 8.94 µg/mL); against Bacillus subtilis 168, 7 µM (≈ 12.5 µg/mL); with Pseudomonas aeruginosa it was 7.4 µM (≈ 13.2 µg/mL).
Take `NCC(=O)N[C@@H](CCCN=C(N)N)C(=O)N[C@H]1CSSC[C@@H](C(=O)O)NC(=O)[C@H](CCCN=C(N)N)NC(=O)[C@H](Cc2ccccc2)NC(=O)[C@H](CC(=O)O)NC(=O)[C@H](CC(=O)O)NC(=O)[C@H](CCCN=C(N)N)NC1=O` [GRCRDDFRC]: in [6], the MIC was no less than 192 µM.
`NCC(=O)N[C@@H](CCCN=C(N)N)C(=O)N[C@H]1CSSC[C@@H](C(=O)O)NC(=O)[C@H](CCCN=C(N)N)NC(=O)[C@H](CCCN=C(N)N)NC(=O)[C@H](CCCN=C(N)N)NC(=O)[C@H](Cc2ccccc2)NC(=O)CNC(=O)[C@H](CCCN=C(N)N)NC1=O` [GRCRGFRRRC] showed an MIC in [6] of 6 µM (≈ 7.59 µg/mL).
For `CC(C)C[C@H](NC(=O)[C@H](Cc1c[nH]c2ccccc12)NC(=O)[C@H](Cc1cnc[nH]1)NC(=O)[C@H](CCCCN)NC(=O)[C@H](CC(C)C)NC(=O)[C@H](C)NC(=O)[C@H](CC(C)C)NC(=O)[C@H](CCCCN)NC(=O)CNC(=O)[C@@H](NC(=O)[C@@H](NC(=O)[C@H](CCCCN)NC(=O)[C@@H](NC(=O)[C@H](CCC(=O)O)NC(=O)[C@H](C)NC(=O)[C@H](CCCCN)NC(=O)[C@H](CCCCN)NC(=O)[C@H](CC(C)C)NC(=O)[C@H](CC(C)C)NC(=O)[C@@H](NC(=O)[C@H](CCCN=C(N)N)NC(=O)[C@H](Cc1ccc(O)cc1)NC(=O)CN)[C@@H](C)O)C(C)C)[C@@H](C)O)C(C)C)C(=O)O` [GYRTLLKKAEVKTVGKLALKHWL], the MIC in the experiment with Escherichia coli MG1655 is 15 µM (≈ 39.8 µg/mL); in experiment [7], 15 µM (≈ 39.8 µg/mL); in experiment [8], 15 µM (≈ 39.8 µg/mL); in experiment [9], greater than 15 µM.
Turning to `CC[C@H](C)[C@H](NC(=O)[C@H](CCCCN)NC(=O)[C@H](CCCCN)NC(=O)[C@H](C)NC(=O)[C@H](CC(C)C)NC(=O)[C@H](C)NC(=O)[C@H](C)NC(=O)[C@H](CC(C)C)NC(=O)[C@H](C)NC(=O)[C@@H](N)CCCCN)C(=O)N[C@@H](CC(C)C)C(=O)N[C@@H](CCC(N)=O)C(=O)N[C@@H](CCC(N)=O)C(=O)N[C@@H](CS)C(=O)N[C@@H](CCCN=C(N)N)C(=O)N[C@@H](CCCN=C(N)N)C(=O)N1CCC[C@H]1C(=O)N[C@@H](CC(C)C)C(=O)N[C@@H](Cc1ccc(O)cc1)C(=O)N[C@@H](CS)C(=O)N[C@@H](CCCN=C(N)N)C(=O)N[C@@H](CCCN=C(N)N)C(=O)N[C@@H](CCCN=C(N)N)C(=O)O` [KALAALAKKILQQCRRPLYCRRR], the MIC in experiment [10] amounted to 3.1 µM (≈ 8.54 µg/mL); in [11] it was 6.3 µM (≈ 17.4 µg/mL); in experiment [12], 3.1 µM (≈ 8.54 µg/mL).
Turning to `C[C@H](NC(=O)[C@H](C)NC(=O)[C@H](CCCCN)NC(=O)[C@H](CCCCN)NC(=O)[C@H](C)NC(=O)[C@H](Cc1ccccc1)NC(=O)[C@H](CCCCN)NC(=O)[C@H](CCCCN)NC(=O)[C@H](C)NC(=O)[C@H](Cc1ccccc1)NC(=O)[C@H](CCCCN)NC(=O)[C@H](CCCCN)NC(=O)[C@H](C)NC(=O)[C@H](Cc1ccccc1)NC(=O)[C@@H](N)CCCCN)C(=O)N[C@@H](CCCCN)C(=O)O` [KFAKKFAKKFAKKAAK], the MIC in experiment [8] was no less than 136 µM.
As to `C[C@H](NC(=O)CNC(=O)[C@@H](N)CCCN=C(N)N)C(=O)N[C@@H](CCCN=C(N)N)C(=O)N[C@@H](CCCN=C(N)N)C(=O)N[C@@H](CCCN=C(N)N)C(=O)O` [RGARRR], the MIC in [6] is no less than 96 µM.
Take `CSCC[C@H](NC(=O)[C@H](CCCCN)NC(=O)[C@H](Cc1ccccc1)NC(=O)[C@H](CC(N)=O)NC(=O)[C@H](CC(C)C)NC(=O)[C@@H]1CCCN1C(=O)[C@@H](N)CCCN=C(N)N)C(=O)N[C@@H](CC(C)C)C(=O)N[C@@H](CCCN=C(N)N)C(=O)N[C@@H](Cc1ccccc1)C(=O)N[C@@H](Cc1c[nH]c2ccccc12)C(=O)NCC(=O)N[C@@H](CCC(N)=O)C(=O)N[C@@H](CCC(N)=O)C(=O)N[C@@H](CCC(N)=O)C(=O)N[C@@H](CS)C(=O)N[C@@H](CCCN=C(N)N)C(=O)N[C@@H](CCCN=C(N)N)C(=O)N1CCC[C@H]1C(=O)N[C@@H](CC(C)C)C(=O)N[C@@H](Cc1ccc(O)cc1)C(=O)N[C@@H](CS)C(=O)N[C@@H](CCCN=C(N)N)C(=O)N[C@@H](CCCN=C(N)N)C(=O)N[C@@H](CCCN=C(N)N)C(=O)O` [RPLNFKMLRFWGQQQCRRPLYCRRR]: the MIC in experiment [10], in experiment [11] and in [12] was 3.1 µM (≈ 10.3 µg/mL) each time.
